Source: patent US20090023694A1, “Contraceptive” (GRUNENTHAL GMBH, priority 2006, published 2009)

Test system: GABAA receptors
Test: Influence on the binding of muscimol to GABAA receptors (rat brain)
Conditions: 5 nM [3H] muscimol, cerebral rat cortex membranes
Protocol: The following tests for determining the influence of allopregnanolone, 3-α-OH-CMA and 3-β-OH-CMA on the binding of muscimol to GABAA receptors (in rats) are based on the publication of the experimental specifications of Snodgrass, S. R. (Nature, 1979, V273, p. 392-394). The corresponding disclosure is included herein as a reference and is part of the disclosure of the present application.
Membrane preparations of cerebral rat cortex material were prepared. 5 nM [^3H] muscimol was used as a reference substance and 10 μM muscimol was used to determine the nonspecific binding. The substances ([^3H] muscimol, allopregnanolone) were each incubated at the receptor for 10 minutes at a temperature of approximately 4° C. The stock solution (5×10^−2 M) of allopregnanolone was prediluted in 75% DMSO at a ratio of 1:10 and was subsequently further diluted in 25% DMSO at a ratio of 1:5. The final concentration of allopregnanolone in the test was 1×10^−10 M, 1×10^−9 M, 1×10^−8 M, 1×10^−7 M, 1×10^−6 M and 1×10^−5 M respectively. The washing steps and the determination of radioactivity were carried out as previously described under point 1.
The influence of 3-α-OH-CMA and 3-β-OH-CMA on the binding of muscimol to GABAA receptors (in rats) was determined in a similar manner to the method described previously. Instead of allopregnanolone, 3-α-OH-CMA or 3-β-OH-CMA were used.

CC(=O)[C@H]1CC[C@H]2[C@@H]3CC[C@H]4C[C@H](O)CC[C@]4(C)[C@H]3CC[C@]12C [allopregnanolone, reference compound]
increase of binding of radioactively labelled muscimol (1 μM test substance): 38%

CC(=O)O[C@]1(C(C)=O)CC[C@H]2[C@@H]3C=C(Cl)C4=C[C@H](O)CC[C@]4(C)[C@H]3CC[C@@]21C [3-α-OH-CMA, 3α-hydroxy-6-chloro-17α-acetoxy-4,6-pregnadien-20-one]
increase of binding of radioactively labelled muscimol (0.001 μM test substance): 12%

CC(=O)O[C@]1(C(C)=O)CC[C@H]2[C@@H]3C=C(Cl)C4=C[C@@H](O)CC[C@]4(C)[C@H]3CC[C@@]21C [3-β-OH-CMA, 3β-hydroxy-6-chloro-17α-acetoxy-4,6-pregnadien-20-one]
increase of binding of radioactively labelled muscimol (0.1 μM test substance): 31%
